Results on twelve compounds are retold here after ChEMBL document CHEMBL1128363, “Design, synthesis, biology, and conformations of bicyclic alpha-melanotropin analogues” (J Med Chem, 1995).

Active and inactive are the calls of the source. The calls are words filed in the database; no cut-off is given here. Where a SMILES comes first, the peptide text is derived from it. [ ]: non-standard residue; d: D form.

One may read the EC50 as the concentration that produces a half-maximal response. Higher therefore signals weaker potency.

Common to all, as to format: functional
Assay [1] is described as follows: Activity expressed as EC50 was measured in frog.
In assay [2] the test system is frog. In words: Potency of compound was measured in frog where (+) indicates peptide is prolonged acting and (-) indicates peptide is not prolonged acting.
In assay [3] the test system is lizard. In words: Potency measured in lizard where (+) indicates peptide is long acting and (-) indicates peptide is not long acting.
Assay [4] is described as follows: Activity expressed as EC50 was measured in lizard.
Assay [5] concerns frog. In words: Potency measured in frog where (-) indicates peptide is not long acting.
The subject of assay [6] is lizard. In words: Potency of compound was measured in lizard where (-) indicates peptide is not prolonged acting.
Assay [7] deals with lizard. Description: Potency of compound was measured in lizard; Inactive.
The subject of assay [8] is frog. In words: Potency of compound was measured in frog.
In assay [9] the test system is frog. Description: Potency measured in frog where (+) indicates peptide is long acting.
The test system of assay [10] is lizard. Description: Potency of compound was measured in lizard where (+) indicates peptide is prolonged acting.
Assay [11] in a line: Activity of compound expressed as EC50 was measured in lizard; Inactive.
The test system of assay [12] is frog. In words: Potency of compound was measured in frog; Inactive.
A short description of assay [13]: Activity of compound expressed as EC50 was measured in frog; Inactive.

For the compound `CC(=O)N[C@@H]1CSSC[C@H]2NC(=O)[C@@H](Cc3c[nH]c4ccccc34)NC(=O)[C@H](CCCN=C(N)N)NC(=O)[C@H](Cc3ccccc3)NC(=O)[C@H](Cc3c[nH]cn3)NC(=O)[C@@H](CC(=O)NCCCC[C@@H](C(N)=O)NC2=O)NC1=O`, the results for the EC50 in assay [1] and in assay [4] were 6 nM and 33 nM, respectively. Further, the Potency was 0.018 in assay [2] and 0.03 in assay [3].
Turning to `CC(=O)N[C@@H]1CSSC[C@H]2NC(=O)[C@@H](Cc3c[nH]c4ccccc34)NC(=O)[C@H](CCCN=C(N)N)NC(=O)[C@H](Cc3ccccc3)NC(=O)[C@H](Cc3c[nH]cn3)NC(=O)[C@@H](CCC(=O)NCCCC[C@@H](C(N)=O)NC2=O)NC1=O`, the values for the EC50 in assay [1] and in assay [4] were 28 nM and 400 nM, respectively. Also, the Potency in [5] was determined as 0.0035; in assay [3], 0.0025.
Regarding `CC(=O)N[C@@H](Cc1c[nH]cn1)C(=O)N[C@@H](Cc1ccccc1)C(=O)N[C@@H](CCCN=C(N)N)C(=O)N[C@@H](Cc1c[nH]c2ccccc12)C(N)=O`, the Potency came out at 0.0014 in assay [6] and 5e-06 in assay [5]. The EC50 worked out at 30000 nM in [1] and 15000 nM in assay [4].
In turn, `CCCC[C@H](NC(C)=O)C(=O)NC1CCCNC(=O)CC[C@H](C(=O)N[C@@H](Cc2c[nH]c3ccccc23)C(=O)NCC(=O)N[C@@H](CCCCN)C(N)=O)NC(=O)[C@@H](Cc2ccccc2)NC(=O)[C@@H](Cc2c[nH]cn2)NC1=O` (stereo in doubt) yielded an EC50 in assay [1] of 1000 nM. The same compound returned a Potency in [5] of 0.001. In assay [7], the Potency entry was “inactive”.
As for `CC(=O)N[C@@H]1CSSC[C@H](C(=O)N[C@H](CCCCN)C(N)=O)NC(=O)[C@@H](Cc2c[nH]c3ccccc23)NC(=O)[C@H](CCCN=C(N)N)NC(=O)C(Cc2ccccc2)NC(=O)[C@H](Cc2c[nH]cn2)NC(=O)[C@@H](CCC(=O)O)NC1=O` (stereo in doubt), the Potency in [6] was 3; in assay [5] it was 2.5. For the same compound, the EC50 in assay [1] was determined as 0.04 nM; in [4], 0.3 nM.
Regarding `CCCC[C@H](NC(C)=O)C(=O)N[C@@H]1CC(=O)NCCCC[C@H](C(N)=O)NC(=O)C(C)(C)NC(=O)[C@@H](Cc2c[nH]c3ccccc23)NC(=O)[C@H](CCCN=C(N)N)NC(=O)[C@@H](Cc2ccccc2)NC(=O)[C@@H](Cc2c[nH]cn2)NC1=O`, the EC50 in assay [1] was found to be 0.1 nM. This compound also returned a Potency in [8] of 1.
`N=C(N)NCCC[C@H]1NC(=O)[C@@H](Cc2ccccc2)NC(=O)[C@@H](Cc2c[nH]cn2)NC(=O)CNC(=O)CNC(=O)[C@H](Cc2c[nH]c3ccccc23)NC1=O` came in with an EC50 in assay [1] of 1200 nM.
In the case of `CC(=O)N[C@@H]1CSSC[C@@H](C(N)=O)NC(=O)[C@@H]2CCCCNC(=O)C[C@@H](NC1=O)C(=O)N[C@@H](Cc1c[nH]cn1)C(=O)N[C@H](Cc1ccccc1)C(=O)N[C@@H](CCCN=C(N)N)C(=O)N[C@H](Cc1c[nH]c3ccccc13)C(=O)N2`, the Potency in assay [9] amounted to 0.003; in [3] it was 0.03. Moreover, the EC50 in assay [1] and in assay [4] was 33 nM each time.
For `CC(=O)N[C@H](Cc1ccccc1)C(=O)N[C@@H](CCCN=C(N)N)C(=O)N[C@@H](Cc1c[nH]c2ccccc12)C(N)=O` (Ac-[dF]-Arg-Trp-NH2), the Potency amounted to 1e-05 in [9] and 0.001 in assay [10]. The values for the EC50 in assay [1] and in assay [4] were 10000 nM and 1000 nM, respectively.
Take `CC(=O)N[C@@H](Cc1cnc[nH]1)C(=O)N[C@H](Cc1ccccc1)C(=O)N[C@@H](CCCNC(=N)N)C(=O)N[C@@H](Cc1c[nH]c2ccccc12)C(N)=O`: the Potency in assay [6] is 0.1; in assay [5], 0.001. Also, the results for the EC50 in [1] and in assay [4] were 150 nM and 10 nM, respectively.
For the compound `CC(=O)N[C@@H]1CSSC[C@H]2NC(=O)[C@@H](Cc3c[nH]c4ccccc34)NC(=O)[C@H](CCCN=C(N)N)NC(=O)C(Cc3ccccc3)NC(=O)[C@H](Cc3c[nH]cn3)NC(=O)[C@@H](CC(=O)NCCCC[C@H](C(=O)N3CCC[C@@H]3C(=O)N[C@H](C(N)=O)C(C)C)NC2=O)NC1=O` (stereo in doubt), the Potency was determined as 0.04 in [9] and 0.03 in assay [3]. Moreover, the EC50 in assay [1] came to 2.5 nM; in assay [4], 33 nM.
As to `CC(=O)N[C@@H](Cc1c[nH]cn1)C(=O)N[C@H](Cc1ccccc1)C(=O)N[C@@H](CCCN=C(N)N)C(N)=O`, the EC50 result in assay [11] and in [13] was “Not Active” throughout. Besides, the Potency entry in assay [7] and in assay [12] was “inactive” each time.
